Assay results: patent US20150366862A1, “Use of flibanserin for the treatment of pre-menopausal sexual desire disorders” (Sprout Pharmaceuticals, Inc., priority 2005, published 2015)

Tests used:
[1] = system: pre-menopausal female patients with HSDD; test: twelve-week randomized, double-blind, placebo-controlled proof of concept trial in pre-menopausal female patients with HSDD (IVR-FSBQ); assay type: in vivo, human
Experimental: This trial was designed as a prospective, multi-center, twelve-week, randomized, double-blind, placebo-controlled, proof of concept, parallel-group trial comparing the effects of flibanserin (maximum total daily dose: 100 mg b.i.d.) to placebo in pre-menopausal female patients with HSDD. Seventy-five patients were to be randomized to each treatment group.
This proof of concept trial was designed to assess whether twelve weeks of flibanserin treatment produced a clinically meaningful therapeutic response in healthy female patients with HSDD (as determined by DSM-IV criteria). Efficacy for flibanserin was assessed versus a parallel placebo group.
After a Screening period (no treatment) of approximately twenty-eight days, eligible patients were randomized into the twelve week, double-blind portion of the trial during which they were to take study medication in the morning and in the evening about 12 hours apart.
Patients must have been pre-menopausal females who were 18 to 45 years of age with the primary diagnosis of HSDD, acquired type, according to DSM-IV criteria. The current episode must have been at least 24 weeks in duration by the Baseline Visit.
The baseline severity criterion was from the Arizona Sexual Experiences Scale, requiring a score of 5 or 6 (very weak or no sex drive) on the sex drive item. […]

5-HT2-receptor = settings: background statement, no value given; cited from earlier work
5-HT-1A receptor = target: T1, 5-HT-1A receptor (Homo sapiens, UniProt P08908); settings: background statement, no value given; cited from earlier work
T1 sequence (P08908 1-422): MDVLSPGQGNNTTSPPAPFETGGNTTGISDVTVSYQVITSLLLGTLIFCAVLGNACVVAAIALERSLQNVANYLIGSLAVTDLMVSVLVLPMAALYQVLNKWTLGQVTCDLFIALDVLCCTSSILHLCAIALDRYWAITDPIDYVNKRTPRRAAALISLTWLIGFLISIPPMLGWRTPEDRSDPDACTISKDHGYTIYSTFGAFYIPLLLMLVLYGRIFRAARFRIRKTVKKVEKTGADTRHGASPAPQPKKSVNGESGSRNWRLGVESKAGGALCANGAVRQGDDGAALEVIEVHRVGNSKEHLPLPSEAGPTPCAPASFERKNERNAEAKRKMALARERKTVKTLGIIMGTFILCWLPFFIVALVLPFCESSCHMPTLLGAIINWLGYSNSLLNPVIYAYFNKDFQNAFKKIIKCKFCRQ

O=c1[nH]c2ccccc2n1CCN1CCN(c2cccc(C(F)(F)F)c2)CC1 [flibanserin, 1-[2-(4-(3-trifluoromethyl-phenyl)piperazin-1-yl)ethyl]-2,3-dihydro-1H-benzimidazol-2-one]
IVR-FSBQ Frequency of Sexual Thoughts, monthly mean change from baseline vs placebo ([1]; pre-menopausal women with HSDD, 50 mg b.i.d. (up to 100 mg b.i.d. from Week 8), 12 weeks, FAS, LOCF, FIG. 1): clearly demonstrates the efficacy | sexual desire enhancing properties ([1]; studies of pre-menopausal female patients suffering from sexual dysfunction): displays sexual desire enhancing properties | affinity for the 5-HT2-receptor (5-HT2-receptor): shows affinity | affinity for the 5-HT-1A receptor (5-HT-1A receptor): shows affinity
